Here are results for 30 compounds from patent publication US20210317092A1 (BAYER PHARMA AKTIENGESELLSCHAFT, priority 2016, published 2021).

The first assay deals with T1, human Bradykinin B1 receptor (Homo sapiens, UniProt P46663).
T1 construct: host or cells: CHO-K1
T1 sequence (P46663 1-353): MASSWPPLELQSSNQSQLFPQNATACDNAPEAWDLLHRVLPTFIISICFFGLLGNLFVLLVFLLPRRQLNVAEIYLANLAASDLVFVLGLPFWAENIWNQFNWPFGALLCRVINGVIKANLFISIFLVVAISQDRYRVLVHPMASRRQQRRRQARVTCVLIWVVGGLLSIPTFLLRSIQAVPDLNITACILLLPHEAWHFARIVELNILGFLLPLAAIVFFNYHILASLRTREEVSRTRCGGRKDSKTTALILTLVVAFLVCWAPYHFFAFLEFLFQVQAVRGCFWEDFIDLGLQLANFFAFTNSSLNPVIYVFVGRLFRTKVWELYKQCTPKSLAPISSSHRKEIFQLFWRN
In words: Calcium flux Assay (FLIPR) with recombinant CHO-K1 cells expressing human Bradykinin B1 receptor, in presence (hB1 IC50) or absence (hB1 free IC50) of 0.1% BSA. The note with it: in absence of 0.1% BSA, read-out: hB1 free IC50. The assay is classed as cell-based.
By IC50 is commonly meant the point on the concentration scale where inhibition reaches its midpoint. As for “1-[2-fluoro-4- (trifluoromethyl) phenyl]-N-[4- (4-isopropyl-1H- pyrazol-1-yl)-3- (1H-tetrazol-5- yl)phenyl]cyclopro- panecarboxa- mide [Example 399]”, the IC50 is 5.16 nM. Consider `O=C(Nc1ccc(-c2ccc(C(F)(F)F)nc2)c(-c2nnn[nH]2)c1F)C1(c2cccc(Cl)c2)CC1` [Example 297, 1-(3-chlorophenyl)-N-{2-fluoro-3-(1H-tetrazol-5-yl)-4-[6-(trifluoromethyl)pyridin-3-yl]phenyl}cyclopro-panecarboxa-mide], for which the half-maximal inhibitory concentration (IC50) worked out at 350 nM. The same measure, in the same setting: in the case of `COc1cc(-c2ccc(NC(=O)C3(c4cccc(Cl)c4)CC3)cc2-c2nnn[nH]2)cnc1C(F)(F)F` [Example 146, 1-(3-chlorophenyl)-N-{4-[5-methoxy-6-(trifluoromethyl)pyridin-3-yl]-3-(1H-tetrazol-5-yl)phenyl} cyclopropane-carboxamide] it was 100 nM; in that of `CC(F)(F)c1ccc(-c2ccc(NC(=O)C3(c4ccc(OC(F)(F)F)cc4F)CC3)cc2-c2nnn[nH]2)cn1` [Example 282, N-{4-[6-(1,1-difluoroethyl)py-ridin-3-yl]-3-(1H-tetrazol-5-yl)phenyl}-1-[2-fluoro-4-(trifluoromethoxy)phenyl]cyclo-propanecarboxa-mide], 3.49 nM.

Take `O=C(Nc1ccc(-c2ccc(C(F)F)nc2)c(-c2nnn[nH]2)c1)C1(c2ccc(F)cc2F)CC1` [Example 273, N-{4-[6-(difluoromethyl)pyridin-3-yl]-3-(1H-tetrazol-5-yl)phenyl}-1-(2,4-difluorophenyl)cy-clopropanecar-boxamide]: the IC50 amounted to 24.9 nM.

Turning to `O=C(Nc1ccc(-c2ccc(C(F)(F)F)nc2)c(-c2nnn[nH]2)c1)C1(c2ccc(C(F)(F)F)c(F)c2)CC1` [Example 288, 1-[3-fluoro-4-(trifluoromethyl)phenyl]-N-{3-(1H-tetrazol-5-yl)-4-[6-(trifluoromethyl)pyridin-3-yl]phenyl}cyclopro-panecarboxa-mide], the IC50 was found to be 6.81 nM.

For the compound `O=C(Nc1ccc(-c2ccc(C(F)(F)F)nc2)c(-c2nnn[nH]2)c1)C1(c2cc(F)c(F)cc2F)CC1` [Example 143, N-{3-(1H-tetrazol-5-yl)-4-[6-(trifluoromethyl)pyridin-3-yl]phenyl}-1-(2,4,5-trifluorophenyl) cyclopropane-carboxamide], the IC50 amounted to 144 nM. Take `O=C(Nc1ccc(-c2ccc(C(F)(F)F)nc2)c(-c2nnn[nH]2)c1F)C1(c2ccc(C(F)(F)F)cc2F)CC1` [Example 300]: the IC50 was 58.1 nM. On to `O=C(Nc1ccc(-c2cc3ccccc3s2)c(-c2nnn[nH]2)c1)C1(c2cccc(Cl)c2)CC1` [Example 383, N-[4-(1-benzothiophen-2-yl)-3-(1H-tetrazol-5-yl)phenyl]-1-(3-chlorophenyl)cyclo-propanecarbox-amide], for which the IC50 is 142 nM. As for `O=C(Nc1ccc(-n2ccc(C(F)(F)F)n2)c(-c2nnn[nH]2)c1)C1(c2ccc(F)c(F)c2)CC1` [Example 355, 1-(3,4-Difluorophenyl)-N-{3-(1H-tetrazol-5-yl)-4-[3-(trifluoromethyl)-1H-pyrazol-1-yl]phenyl}cyclopro-panecarboxa-mide], the concentration for half-maximal inhibition (IC50) amounted to 1880 nM. The same measure, in the same setting: the same measure for `O=C(Nc1ccc(-c2cc3c(Cl)nccc3o2)c(-c2nnn[nH]2)c1)C1(c2cccc(Cl)c2)CC1` [Example 332, N-[4-(4-chlorofuro[3,2-c]pyridin-2-yl)-3-(1H-tetrazol-5-yl)phenyl]-1-(3-chlorophenyl)cy-clopropanecarbox-amide]: 191 nM.

Turning to `CCc1ccn(-c2ccc(NC(=O)C3(c4cccc(Cl)c4)CC3)cc2-c2nnn[nH]2)n1` [Example 374, 1-(3-Chlorophenyl)-N-[4-(3-ethyl-1H-pyrazol-1-yl)-3-(1H-tetrazol-5-yl)phenyl]cyclopro-panecarboxa-mide], the IC50 was determined as 1890 nM. The same measure, in the same setting: the same measure for `O=C(Nc1ccc(-c2cc(F)cc(C(F)(F)F)c2)c(-c2nnn[nH]2)c1)C1(c2cccc(Cl)c2)CC1` [Example 130, 1-(3-chlorophenyl)-N-[3′-fluoro-2-(1H-tetrazol-5-yl)-5′-(trifluoromethyl)biphenyl-4-yl]cyclopropane carboxamide]: 362 nM; for `COc1cc(C2(C(=O)Nc3ccc(-c4ccc(OC)c(OC)c4)c(-c4nnn[nH]4)c3)CC2)ccc1F` [Example 33, N-[3′,4′-dimethoxy-2-(1H-tetrazol-5-yl)biphenyl-4-yl]-1-(4-fluoro-3-methoxyphenyl) cyclopropane-carboxamide]: 284 nM; for `O=C(Nc1ccc(-n2cc(C(F)F)cn2)c(-c2nnn[nH]2)c1)C1(c2ccc(F)c(F)c2)CC1` [Example 353, N-{4-[4-(Difluoromethyl)-1H-pyrazol-1-yl]-3-(1H-tetrazol-5-yl)phenyl}-1-(3,4-difluorophenyl)cy-clopropanecar-boxamide]: 1210 nM.

Regarding `O=C(Nc1ccc(-c2ccc(C(F)F)nc2)c(-c2nnn[nH]2)c1)C1(c2ccc(Cl)cc2)CC1` [Example 269, 1-(4-chlorophenyl)-N-{4-[6-(difluoromethyl)pyridin-3-yl]-3-(1H-tetrazol-5-yl)phenyl}cyclopro-panecarboxa-mide], the IC50 was determined as 13.2 nM.

Take `N#Cc1ccc(-c2ccc(NC(=O)C3(c4cccc(Cl)c4)CC3)cc2-c2nnn[nH]2)cc1F` [Example 186, 1-(3-chlorophenyl)-N-[4′-cyano-3′-fluoro-2-(1H-tetrazol-5-yl)biphenyl-4-yl]cyclopropane carboxamide]: the IC50 came to 252 nM. Consider `O=C(Nc1ccc(-c2cnc(C(F)(F)F)nc2)c(-c2nnn[nH]2)c1)C1(c2ccc(C(F)(F)F)cc2)CC1` [Example 205, N-{3-(1H-tetrazol-5-yl)-4-[2-(trifluoromethyl)pyrimidin-5-yl]phenyl)-1-[4-(trifluoromethyl)phenyl] cyclopropane-carboxamide], for which the IC50 was 170 nM.

`O=C(Nc1ccc(-c2cnc(C(F)(F)F)nc2)c(-c2nnn[nH]2)c1)C1(c2ccc(Cl)c(F)c2)CC1` [Example 251, 1-(4-chloro-3-fluorophenyl)-N-{3-(1H-tetrazol-5-yl)-4-[2-(trifluoromethyl)pyrimidin-5-yl]phenyl} cyclopropane-carboxamide]: the IC50 amounted to 227 nM. Same read-out and setting: in the case of `O=C(Nc1ccc(-n2ccc(C(F)(F)F)n2)c(-c2nnn[nH]2)c1)C1(c2ccc(C(F)(F)F)cc2F)CC1` [Example 348, 1-[2-Fluoro-4-(trifluoromethyl)phenyl]-N-{3-(1H-tetrazol-5-yl)-4-[3-(trifluoromethyl)-1H-pyrazol-1-yl]phenyl}cyclopro-panecarboxa-mide] it was 122 nM; in that of `CCOc1ccc(-c2ccc(NC(=O)C3(c4cccc(Cl)n4)CC3)cc2-c2nnn[nH]2)cn1` [Example 107, 1-(6-chloropyridin-2-yl)-N-[4-(6-ethoxypyridin-3-yl)-3-(1H-tetrazol-5-yl)phenyl] cyclopropane-carboxamide], 177 nM.

Still in this assay, the particulars now being: in presence of 0.1% BSA, read-out: hB1 IC50.
As to `COc1ccc(-c2ccc(NC(=O)C3(c4cccc(Cl)c4)CC3)cc2-c2nnn[nH]2)cc1C` [Example 116, 1-(3-chlorophenyl)-N-[4′-methoxy-3′-methyl-2-(1H-tetrazol-5-yl)biphenyl-4-yl]cyclopropane carboxamide], the 50% inhibitory concentration (IC50) came out at 177 nM. As for `COc1ccc(-c2ccc(NC(=O)C3(c4cccc(Cl)c4)CC3)cc2-c2nnn[nH]2)cn1` [Example 316, 1-(3-chlorophenyl)-N-[4-(6-methoxypyridin-3-yl)-3-(1H-tetrazol-5-yl)phenyl]cyclopro-panecarboxa-mide], the IC50 is 328 nM. With `COc1ccc(-c2ccc(NC(=O)C3(c4cccc(C(C)(C)C)c4)CC3)cc2-c2nnn[nH]2)cc1OC` [Example 42, 1-(3-tert-butylphenyl)-N-[3′,4′-dimethoxy-2-(1H-tetrazol-5-yl)biphenyl-4-yl]cyclopropane carboxamide], the IC50 came to 746 nM.

On to `COc1cc(F)cc(C2(C(=O)Nc3ccc(-c4ccc(OC)c(OC)c4)c(-c4nnn[nH]4)c3)CC2)c1` [Example 32], for which the IC50 is 41.6 nM. Still for that read-out and setting: the same measure for `O=C(Nc1ccc(-c2cc3c(Cl)nccc3o2)c(-c2nnn[nH]2)c1)C1(c2cccc(Cl)c2)CC1` [Example 332, N-[4-(4-chlorofuro[3,2-c]pyridin-2-yl)-3-(1H-tetrazol-5-yl)phenyl]-1-(3-chlorophenyl)cy-clopropanecarbox-amide]: 274 nM. Same read-out and setting: in the case of `COc1ccc(-c2ccc(NC(=O)C3(CC4CCCCC4)CC3)cc2-c2nnn[nH]2)cc1OC` [Example 54, 1-(cyclohexyl-methyl)-N-[3′,4′-dimethoxy-2-(1H-tetrazol-5-yl)biphenyl-4-yl]cyclopropane carboxamide] it was 544 nM; in that of `COc1cc(C2(C(=O)Nc3ccc(-c4ccc(OC)c(OC)c4)c(-c4nnn[nH]4)c3)CC2)ccc1F` [Example 33, N-[3′,4′-dimethoxy-2-(1H-tetrazol-5-yl)biphenyl-4-yl]-1-(4-fluoro-3-methoxyphenyl) cyclopropane-carboxamide], 238 nM; in that of `COc1ccc(-c2ccc(NC(=O)C3(c4ccc(OC(F)(F)F)cc4)CC3)cc2-c2nnn[nH]2)cc1OC` [Example 19, N-[3′,4′-dimethoxy-2-(1H-tetrazol-5-yl)biphenyl-4-yl]-1-[4-(trifluoromethoxy)phenyl] cyclopropane-carboxamide], 42.9 nM.

With `O=C(Nc1cc(-c2nnn[nH]2)c(-c2ccc(C(F)(F)F)nc2)cc1O)C1(c2cccc(Cl)c2F)CC1` [Example 225, 1-(3-chloro-2-fluorophenyl)-N-{2-hydroxy-5-(1H-tetrazol-5-yl)-4-[6-(trifluoromethyl)pyridin-3-yl]phenyl} cyclopropane-carboxamide], the IC50 was found to be 88.9 nM. On the same count and under the same terms, the same measure for `N#Cc1cc(F)cc(-c2ccc(NC(=O)C3(c4cccc(Cl)c4)CC3)cc2-c2nnn[nH]2)c1` [Example 337, 1-(3-chlorophenyl)-N-[3′-cyano-5′-fluoro-2-(1H-tetrazol-5-yl)biphenyl-4-yl]cyclopropane carboxamide]: 2030 nM. Take `CCOc1ccc(-c2ccc(NC(=O)C3(c4ccc(Cl)cn4)CC3)cc2-c2nnn[nH]2)cn1` [Example 85, 1-(5-chloropyridin-2-yl)-N-[4-(6-ethoxypyridin-3-yl)-3-(1H-tetrazol-5-yl)phenyl] cyclopropane-carboxamide]: the IC50 was 63.1 nM. On the same count and under the same terms, the same measure for `CCOc1ccc(-c2ccc(NC(=O)C3(c4cccc(Cl)n4)CC3)cc2-c2nnn[nH]2)cn1` [Example 107, 1-(6-chloropyridin-2-yl)-N-[4-(6-ethoxypyridin-3-yl)-3-(1H-tetrazol-5-yl)phenyl] cyclopropane-carboxamide]: 134 nM.
